Assay results as given in US10421761B2, “Compounds for kinase modulation, and indications therefor” (Plexxikon Inc., priority 2013, dated 2019).

How the values were obtained:
BRAF V600E = target: T1, BRAF V600E (Homo sapiens, UniProt P15056, V600E); assay: BRAF V600E biochemical kinase activity assay (AlphaScreen, biotin-MEK1 substrate); conditions: BRAF V600E biochemical inhibitory activity
T1 construct: purchased Upstate Biotechnology
Procedure: Compounds to be tested are diluted in dimethyl sulfoxide to a concentration of 0.1 mM. These are serially diluted 15 μL into 30 μL of dimethyl sulfoxide seven times in 96 well plates for a total of 8 dilution points, and for each dilution point 1 μL is added to a well of an assay plate. […] The reaction is started with addition of 10 μL of 200 μM ATP (i.e. final 100 μM ATP). After incubation of the kinase reaction for 45 minutes at room temperature, 5 μL/well of Stop Solution is added (25 mM Hepes pH 7.5, 100 mM EDTA, 0.01% BSA with donor beads (Streptavidin coated beads, Perkin Elmer), acceptor beads (Protein A coated, Perkin Elmer), and anti-phosphor MEK1/2 antibody (CellSignal), each at final concentration 10 μg/mL). The plates are incubated for 3 hours at room temperature and read on Envision reader (Perkin Elmer). Phosphorylation of Mek1 results in binding of the anti-phosphor-MEK1/2antibody and association of the donor and acceptor beads such that signal correlates with kinase activity. The signal versus compound concentration is used to determine the IC50.
The in vitro RAF kinase activities were determined by measuring phosphorylation of a biotinylated substrate peptide as described previously (Tsai, J. et al. Proc Natl Acad Sci USA 105, 3041-3046 (2008)). Compounds of formula (I), e.g., compound A, was also tested against a panel of 287 kinases at concentrations of 1 μM in duplicate. Kinases inhibited by over 50% were followed up by IC50 determination. The 287 kinases represent all major branches of the kinome phylogenetic tree. The inhibition screen of 287 kinases was carried out under contract as complementary panels at Invitrogen (Life Technologies, Wis., USA) SelectScreen™ profiling service, DiscoverX (CA, USA) KINOMEScan™ service, and Reaction Biology Corporation (PA, USA) Kinase HotSpot℠ service.

B9 (HRAS Q61L) cell line = assay: B9 P-ERK cell activation assay (AlphaScreen); format: cell-based, mouse; conditions: Mus musculus; P-ERK cell activation, B9; numeric bounds; read-out: Cell activity (EC50 μM) B9_pERK
Procedure: (§1) B9 is a squamous cell carcinoma cell line expressing activated HRAS that was isolated from a DMBA/TPA-induced mouse model of skin carcinogenesis (Stoler, et al. The Journal of Cell Biology, 1993, 122(5), 1103-17). IPC-298 is a human melanoma cell line that expresses activated NRAS (Aubert, et al. International Journal of Cancer, 1993, 54(5), 784-92). To determine whether compounds induce phosphorylated ERK and MEK, cells are plated in a 96-well dish and treated with an 8-point titration of compound for one hour at 37° C. The media is then removed and the cells are incubated with lysis buffer containing protease and phosphatase inhibitors. Phosphorylated ERK and MEK in the resulting lysates is detected using AlphaScreen™ technology. To detect phosphorylated ERK, cell lysates are incubated with streptavidin-coated donor beads, anti-mouse IgG acceptor beads, a biotinylated anti-ERK1/2 rabbit antibody, and a mouse antibody that recognizes ERK1/2 only when it is phosphorylated on Thr202 and Tyr204. The biotinylated ERK1/2 antibody will bind to both the streptavidin-coated donor beads and to ERK1/2 (regardless of its phosphorylation state), and the phospho-ERK1/2 antibody will bind to the acceptor beads and to ERK1/2 that is phosphorylated at Thr202/Tyr204. Excitation of the beads with laser light at 680 nm produces singlet oxygen, which is rapidly quenched unless the beads are in close proximity. When ERK is phosphorylated, both antibodies can bind the same protein, bringing the donor and acceptor beads into close proximity, producing a signal that can be measured at 580 nm. MEK phosphorylation is detected using a similar approach, only with antibodies directed against total MEK1/2 and MEK1/2 that is phosphorylated at Ser217 and Ser221.
(§2) Phospho-ERK AlphaScreen® assay. To determine the effects of compound treatment upon phosphorylation of ERK1/2, cells were plated in a 96-well dish and treated with an 8-point titration of compound for one hour at 37° C. before lysis. To detect pERK, cell lysates were incubated with streptavidin-coated AlphaScreen® donor beads, anti-mouse IgG AlphaScreen® acceptor beads, a biotinylated anti-ERK1/2 rabbit antibody, and a mouse antibody that recognizes ERK1/2 only when it is phosphorylated on Thr202 and Tyr204. The biotinylated ERK1/2 antibody binds to both the streptavidin-coated AlphaScreen® donor beads and to ERK1/2 (regardless of its phosphorylation state), and the phospho-ERK1/2 antibody binds to the acceptor beads and to ERK1/2 that is phosphorylated at Thr202/Tyr204. An increase in ERK1/2 phosphorylation at Thr202/Tyr204 brings the donor and acceptor AlphaScreen® beads into close proximity, generating a signal that can be quantified on an EnVision reader (Perkin Elmer).

[1] = tested on: IPC-298 (NRAS Q61L) cell line; assay: IPC-298 P-ERK cell activation assay (AlphaScreen); format: cell-based, human; conditions: Homo sapiens; P-ERK cell activation, IPC-298; numeric bounds; read-out: Cell activity (EC50 μM) IPC-298_P-ERK
Procedure: as §1, §2

[2] = tested on: A375 (BRAF V600E) cell line; assay: A375 P-ERK inhibition assay (AlphaScreen); format: cell-based, human; conditions: Homo sapiens, A-375; A375_P-ERK
Procedure: as §2

T1 sequence (P15056 whole entry V600E): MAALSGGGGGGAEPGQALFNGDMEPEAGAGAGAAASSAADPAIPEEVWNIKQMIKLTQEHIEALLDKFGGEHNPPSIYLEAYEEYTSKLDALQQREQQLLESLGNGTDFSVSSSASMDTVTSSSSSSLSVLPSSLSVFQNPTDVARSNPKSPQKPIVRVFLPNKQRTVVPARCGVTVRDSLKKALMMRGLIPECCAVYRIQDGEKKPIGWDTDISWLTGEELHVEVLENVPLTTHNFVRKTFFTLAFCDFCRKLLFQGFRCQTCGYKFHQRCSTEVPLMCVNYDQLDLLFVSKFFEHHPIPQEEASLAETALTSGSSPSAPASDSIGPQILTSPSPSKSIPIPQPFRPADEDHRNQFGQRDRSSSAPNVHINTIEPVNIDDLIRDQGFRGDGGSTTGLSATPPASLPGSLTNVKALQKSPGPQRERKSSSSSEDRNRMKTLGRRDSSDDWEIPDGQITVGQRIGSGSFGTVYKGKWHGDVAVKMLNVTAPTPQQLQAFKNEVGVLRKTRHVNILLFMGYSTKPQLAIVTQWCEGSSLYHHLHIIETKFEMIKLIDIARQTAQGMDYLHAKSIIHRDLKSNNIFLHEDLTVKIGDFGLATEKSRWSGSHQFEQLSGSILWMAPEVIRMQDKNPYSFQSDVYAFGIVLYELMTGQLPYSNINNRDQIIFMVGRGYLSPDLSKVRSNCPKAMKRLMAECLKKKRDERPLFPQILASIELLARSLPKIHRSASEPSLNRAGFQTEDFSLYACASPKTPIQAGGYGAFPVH

Row | Structure (SMILES) | IC50 (BRAF V600E) | EC50 (B9 (HRAS Q61L) cell line) | EC50 [1] | IC50 [2]
1 | CCC(C)S(=O)(=O)Nc1ccc(F)c(C(=O)c2c[nH]c3nccc(C#N)c23)c1F (stereo not shown) [P-2020, N-[3-(4-cyano-1H-pyrrolo[2,3-b]pyridine-3-carbonyl)-2,4-difluoro-phenyl]butane-2-sulfonamide] | 0.0001 to 1 µM | > 10 µM | > 10 µM | 0.0001 to 1 µM
2 | N#Cc1ccnc2[nH]cc(C(=O)c3c(F)ccc(NS(=O)(=O)C4CCC4)c3F)c12 [P-2021, N-[3-(4-cyano-1H-pyrrolo[2,3-b]pyridine-3-carbonyl)-2,4-difluoro-phenyl]cyclobutanesulfonamide] | 0.0001 to 1 µM | > 10 µM | > 10 µM | > 10 µM
3 | N#Cc1ccnc2[nH]cc(C(=O)c3c(F)ccc(NS(=O)(=O)N4CCOCC4)c3F)c12 [P-2022, N-[3-(4-cyano-1H-pyrrolo[2,3-b]pyridine-3-carbonyl)-2,4-difluoro-phenyl]morpholine-4-sulfonamide] | 0.0001 to 1 µM | > 10 µM | > 10 µM | 0.0001 to 1 µM
4 | COc1ccnc2[nH]cc(C(=O)c3c(F)ccc(NS(=O)(=O)N4CCOCC4)c3F)c12 [P-2023, N-[2,4-difluoro-3-(4-methoxy-1H-pyrrolo[2,3-b]pyridine-3-carbonyl)phenyl]morpholine-4-sulfonamide] | 0.0001 to 1 µM | > 10 µM | > 10 µM | 1 to 10 µM
5 | O=C(c1c(F)ccc(NS(=O)(=O)N2CCOCC2)c1F)c1c[nH]c2nccc(Cl)c12 [P-2024, N-[3-(4-chloro-1H-pyrrolo[2,3-b]pyridine-3-carbonyl)-2,4-difluoro-phenyl]morpholine-4-sulfonamide] | 0.0001 to 1 µM | > 10 µM | > 10 µM | 0.0001 to 1 µM
6 | O=C(c1c(F)ccc(NS(=O)(=O)N2CCCC2)c1F)c1c[nH]c2nccc(Cl)c12 [P-2025, N-[3-(4-chloro-1H-pyrrolo[2,3-b]pyridine-3-carbonyl)-2,4-difluoro-phenyl]pyrrolidine-1-sulfonamide] | 0.0001 to 1 µM | > 10 µM | > 10 µM | 0.0001 to 1 µM
7 | CN(C)S(=O)(=O)Nc1ccc(F)c(C(=O)c2c[nH]c3ncncc23)c1F [P-2026, 5-[3-(dimethylsulfamoylamino)-2,6-difluoro-benzoyl]-7H-pyrrolo[2,3-d]pyrimidine] | 1 to 10 µM | > 10 µM | > 10 µM | > 10 µM
8 | O=C(c1c(F)ccc(NS(=O)(=O)C2CCCCC2)c1F)c1c[nH]c2ncncc12 [P-2027, N-[2,4-difluoro-3-(7H-pyrrolo[2,3-d]pyrimidine-5-carbonyl)phenyl]cyclohexanesulfonamide] | 0.0001 to 1 µM | > 10 µM | > 10 µM | 0.0001 to 1 µM
9 | O=C(c1c(F)ccc(NS(=O)(=O)C2CCC2)c1F)c1c[nH]c2ncncc12 [P-2030, N-[2,4-difluoro-3-(7H-pyrrolo[2,3-d]pyrimidine-5-carbonyl)phenyl]cyclobutanesulfonamide] | 1 to 10 µM | > 10 µM | > 10 µM | 1 to 10 µM
10 | O=C(c1c(F)ccc(NS(=O)(=O)N2CCOCC2)c1F)c1c[nH]c2ncncc12 [P-2031, N-[2,4-difluoro-3-(7H-pyrrolo[2,3-d]pyrimidine-5-carbonyl)phenyl]morpholine-4-sulfonamide] | 1 to 10 µM | > 10 µM | > 10 µM | > 10 µM
11 | O=C(c1cccc(NS(=O)(=O)N2CCCC2)c1F)c1c[nH]c2ncncc12 [P-2032, N-[2-fluoro-3-(7H-pyrrolo[2,3-d]pyrimidine-5-carbonyl)phenyl]pyrrolidine-1-sulfonamide] | 0.0001 to 1 µM | > 10 µM | > 10 µM | 0.0001 to 1 µM
12 | CC(=O)Nc1ccc(NC(=O)c2c(F)ccc(NS(=O)(=O)N3CCCCC3)c2F)cn1 [P-2033, N-(6-acetamido-3-pyridyl)-2,6-difluoro-3-(1-piperidylsulfonylamino)benzamide] | 0.0001 to 1 µM | > 10 µM | > 10 µM | > 10 µM
13 | CC(=O)Nc1ccc(NC(=O)c2c(F)ccc(NS(=O)(=O)N(C)C)c2F)cn1 [P-2034, N-(6-acetamido-3-pyridyl)-3-(dimethylsulfamoylamino)-2,6-difluoro-benzamide] | 0.0001 to 1 µM | > 10 µM | > 10 µM | 1 to 10 µM
14 | CC(=O)Nc1ccc(NC(=O)c2c(F)ccc(NS(=O)(=O)C3CCCC3)c2F)cn1 [P-2035, N-(6-acetamido-3-pyridyl)-3-(cyclopentylsulfonylamino)-2,6-difluoro-benzamide] | 0.0001 to 1 µM | > 10 µM | > 10 µM | 1 to 10 µM
15 | CC(=O)Nc1ccc(NC(=O)c2c(F)ccc(NS(=O)(=O)N3CCCC3)c2F)cn1 [P-2036, N-(6-acetamido-3-pyridyl)-2,6-difluoro-3-(pyrrolidin-1-ylsulfonylamino)benzamide] | 1 to 10 µM | > 10 µM | > 10 µM | 1 to 10 µM
16 | CC(C)Nc1ncnc2[nH]cc(C(=O)c3c(F)ccc(NS(=O)(=O)C(C)C)c3F)c12 [P-2037, N-[2,4-difluoro-3-[4-(isopropylamino)-7H-pyrrolo[2,3-d]pyrimidine-5-carbonyl]phenyl]propane-2-sulfonamide] | 0.0001 to 1 µM | > 10 µM | > 10 µM | 0.0001 to 1 µM
17 | CC(C)Nc1ncnc2[nH]cc(C(=O)c3c(F)ccc(NS(=O)(=O)N4CCCCC4)c3F)c12 [P-2038, N-[2,4-difluoro-3-[4-(isopropylamino)-7H-pyrrolo[2,3-d]pyrimidine-5-carbonyl]phenyl]piperidine-1-sulfonamide] | 0.0001 to 1 µM | > 10 µM | > 10 µM | 0.0001 to 1 µM
18 | CC(C)Nc1ncnc2[nH]cc(C(=O)c3c(F)ccc(NS(=O)(=O)C4CCCCC4)c3F)c12 [P-2039, N-[2,4-difluoro-3-[4-(isopropylamino)-7H-pyrrolo[2,3-d]pyrimidine-5-carbonyl]phenyl]cyclohexanesulfonamide] | 0.0001 to 1 µM | > 10 µM | > 10 µM | 0.0001 to 1 µM
19 | CC(C)Nc1ncnc2[nH]cc(C(=O)c3c(F)ccc(NS(=O)(=O)C4CCCC4)c3F)c12 [P-2040, N-[2,4-difluoro-3-[4-(isopropylamino)-7H-pyrrolo[2,3-d]pyrimidine-5-carbonyl]phenyl]cyclopentanesulfonamide] | 0.0001 to 1 µM | > 10 µM | > 10 µM | 0.0001 to 1 µM
